We go through 19 molecules from patent publication US9120749B2, “Quinoline derivatives and MELK inhibitors containing the same” (ONCOTHERAPY SCIENCE, INC., priority 2010, dated 2015).

For one test, the system named is A549 cells. The test can be described thus: Cell-based assay: anti-proliferative activity, Cell Counting Kit-8, 72 hours (A549). The note with it: Homo sapiens, A549, 72 h, 72 hours. The method in brief:
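A549 cells seeded in 96-well plates and exposed to candidate inhibitors for 72 hours. Growth measured with Cell Counting Kit-8; IC50 values calculated from the dose response.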
A general note: Tetrazolium dyes change colour on reduction, which living cells bring about.

In another test the target is MELK (Homo sapiens, UniProt Q14680). The test can be described thus: Kinase assay: MELK activity, phosphorylation of FITC-labeled histone H3 peptide measured by IMAP fluorescence polarization. The test is classed as biochemical. The note with it: read-out: IC50 (μM) (kinase assay). An outline of the steps: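 FP readout: FITC-histone H3 peptide phosphorylation, read 0.5 h (RT) after stopping with 3x volume of IMAP progressive binding solution. Final DMSO 1%.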
MELK, sequence (Q14680 whole entry, looked up): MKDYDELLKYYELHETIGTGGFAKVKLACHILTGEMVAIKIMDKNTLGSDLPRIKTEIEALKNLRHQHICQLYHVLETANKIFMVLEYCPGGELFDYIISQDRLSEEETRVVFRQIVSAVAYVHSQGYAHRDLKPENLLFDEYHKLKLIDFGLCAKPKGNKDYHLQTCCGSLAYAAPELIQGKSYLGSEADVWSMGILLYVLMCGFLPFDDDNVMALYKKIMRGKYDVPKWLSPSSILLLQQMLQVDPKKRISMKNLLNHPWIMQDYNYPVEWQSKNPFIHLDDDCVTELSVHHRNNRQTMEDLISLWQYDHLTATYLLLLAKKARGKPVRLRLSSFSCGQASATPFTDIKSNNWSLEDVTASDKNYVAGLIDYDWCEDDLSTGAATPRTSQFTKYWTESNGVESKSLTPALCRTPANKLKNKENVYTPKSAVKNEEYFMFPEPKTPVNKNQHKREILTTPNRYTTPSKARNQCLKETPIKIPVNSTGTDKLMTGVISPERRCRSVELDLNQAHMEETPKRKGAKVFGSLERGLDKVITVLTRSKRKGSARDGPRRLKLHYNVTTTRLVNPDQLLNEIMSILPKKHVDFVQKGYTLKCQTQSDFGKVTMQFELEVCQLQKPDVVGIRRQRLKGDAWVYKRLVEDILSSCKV
(In general: In fluorescence polarisation assays a small probe gives low polarisation when free and higher when bound to something large.)

In the next test the test system is T47D cells. The test can be described thus: Cell-based assay: anti-proliferative activity, Cell Counting Kit-8, 72 hours (T47D). The note with it: Homo sapiens, T47D, 72 h. The method in brief:
(§1)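 Cellular growth is read by CCK-8 colorimetric kit 72 h after inhibitor addition to seeded cells, and IC50 values are derived from the resulting data; MELK protein levels in these lines are checked beforehand by immunoblotting whole crude lysate.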

The test system of test [1] is DU4475 cells. The test can be described thus: Cell-based assay: anti-proliferative activity, Cell Counting Kit-8, 72 hours (DU4475). The note with it: Homo sapiens, DU-4475, 72 h.
In a further test the test system is HT-1197 cells. The test can be described thus: Cell-based assay: anti-proliferative activity, Cell Counting Kit-8, 72 hours (HT-1197, negative control without MELK expression). The note with it: Homo sapiens, HT1197, 72 h, 72 hours. The method in brief:
as §1

In test [2] the test system is DU4475 cells. The test can be described thus: Cell-based assay: anti-proliferative activity, Cell Counting Kit-8, 72 hours (DU4475). The note with it: Homo sapiens, DU-4475, 72 h. The source holds these as a separate data set.
Setting [3] is: HT1197 cells (negative control).
The mark [4] stands for this setting: HT1197 cells (negative control, no MELK expression).

In general, IC50 refers to the concentration at which inhibition is half-maximal.

Consider `O=C(c1cnc2ccc(-c3cc(F)c(O)c(Cl)c3)cc2c1Nc1ccc(NC2CCCNC2)nc1)C1CC1` (stereo not shown) [Example 611, (6-(3-chloro-5-fluoro-4-hydroxyphenyl)-4-(6-(piperidin-3-ylamino)pyridin-3-ylamino)quinolin-3-yl)(cyclopropyl)methanone], for which the IC50 amounted to 0.57 µM in the test on A549 cells; 0.0023 µM at MELK; 0.13 µM in the test with T47D cells; 0.39 µM in the test with DU4475 cells [1]; 10 µM in the test on HT-1197 cells (setting [3]).
The matching figures for `COc1cc(-c2ccc3ncc(C(=O)C4CC4)c(Nc4ccc(CCN(C)C)cc4)c3c2)cc(Cl)c1O` [Example 612, (6-(3-chloro-4-hydroxy-5-methoxyphenyl)-4-(4-(2-(dimethylamino)ethyl)phenylamino)quinolin-3-yl)(cyclopropyl)methanone]: 0.72 µM, 0.0055 µM, 0.84 µM, 0.4 µM and 4.7 µM.
The matching figures for `CN(C)CCc1ccc(Nc2c(C(=O)C3CC3)cnc3ccc(-c4cc(Cl)c(O)c(Cl)c4)cc23)cc1` [Example 613, Cyclopropyl(6-(3,5-dichloro-4-hydroxyphenyl)-4-(4-(2-(dimethylamino)ethyl)phenylamino)quinolin-3-yl)methanone]: 0.075 µM, 0.0022 µM, 0.13 µM, 0.028 µM and 1 µM.
On to `CN(C)CCc1ccc(Nc2c(C(=O)C3CC3)cnc3ccc(-c4cc(F)c(O)c(Cl)c4)cc23)cc1` [Example 615, (6-(3-chloro-5-fluoro-4-hydroxyphenyl)-4-(4-(2-(dimethylamino)ethyl)phenylamino)quinolin-3-yl)(cyclopropyl)methanone], for which the IC50 in the test with A549 cells was 0.086 µM; at MELK, 0.0082 µM; in the test with T47D cells, 0.17 µM; with DU4475 cells [1], 0.042 µM; with HT-1197 cells (setting [3]) it was 1.4 µM.
Regarding `COc1cc(-c2ccc3ncc(C(C)=O)c(Nc4cnc(N5CCNCC5)nc4)c3c2)cc(Cl)c1O` [Example 616, 1-(6-(3-chloro-4-hydroxy-5-methoxyphenyl)-4-(2-(piperazin-1-yl)pyrimidin-5-ylamino)quinolin-3-yl)ethanone], the IC50 in the test on A549 cells amounted to 0.66 µM; on MELK, 0.0044 µM; in the test with T47D cells, 0.22 µM; in the test on DU4475 cells [1] it was 0.5 µM; with HT-1197 cells (setting [3]), 1.8 µM.
Regarding `CCCC(=O)c1cnc2ccc(-c3cc(Cl)c(O)c(OC)c3)cc2c1Nc1ccc(N2CCNCC2)nc1` [Example 617, 1-(6-(3-chloro-4-hydroxy-5-methoxyphenyl)-4-(6-(piperazin-1-yl)pyridin-3-ylamino)quinolin-3-yl)butan-1-one], the IC50 worked out at 0.19 µM in the test with A549 cells; 0.0042 µM on MELK; 0.33 µM in the test with T47D cells; 0.32 µM with DU4475 cells [1]; 1.7 µM in the test on HT-1197 cells (setting [3]).
Take `CC(C)C(=O)c1cnc2ccc(-c3cc(F)c(O)c(Cl)c3)cc2c1N[C@H]1CC[C@H](CN(C)C)CC1` [Example 620]: the IC50 was 0.18 µM in the test on A549 cells; 0.0066 µM at MELK; 0.16 µM in the test on T47D cells; 0.095 µM in the test on DU4475 cells [1]; 0.17 µM in the test on HT-1197 cells (setting [3]).
Consider `O=C(c1cnc2ccc(-c3cc(F)c(O)c(Cl)c3)cc2c1N[C@H]1C[C@H]2CC[C@@H](C1)N2)C1CC1` [Example 621, (4-((1R,3r,5S)-8-azabicyclo[3.2.1]octan-3-ylamino)-6-(3-chloro-5-fluoro-4-hydroxyphenyl)quinolin-3-yl)(cyclopropyl)methanone], for which the IC50 with A549 cells amounted to 0.91 µM; on MELK it was 0.01 µM; in the test on T47D cells, 0.24 µM; in the test with DU4475 cells [1], 0.11 µM; in the test with HT-1197 cells (setting [3]), 3.9 µM.
With `COc1cc(-c2ccc3ncc(C(=O)C4CC4)c(Nc4cccc(CN(C)C)c4)c3c2)cc(Cl)c1O` [Example 622, (6-(3-chloro-4-hydroxy-5-methoxyphenyl)-4-(3-((dimethylamino)methyl)phenylamino)quinolin-3-yl)(cyclopropyl)methanone], the IC50 with A549 cells amounted to 0.43 µM; at MELK, 0.0037 µM; in the test on T47D cells, 1.1 µM; in the test on DU4475 cells [1], 0.32 µM; in the test with HT-1197 cells (setting [3]), 5.5 µM.
As for `CCCC(=O)c1cnc2ccc(-c3cc(F)c(O)c(Cl)c3)cc2c1Nc1ccc(N2CCNCC2)nc1` [Example 623, 1-{6-(3-Chloro-5-fluoro-4-hydroxyphenyl)-4-[6-(piperazin-1-yl)pyridin-3-ylamino]quinolin-3-yl}butan-1-one], the IC50 with A549 cells came to 0.2 µM; at MELK it was 0.011 µM; in the test on T47D cells it was 0.085 µM; in the test on DU4475 cells [1], 0.1 µM; with HT-1197 cells (setting [3]), 2 µM.
The matching figures for `CN(C)Cc1cccc(Nc2c(C(=O)C3CC3)cnc3ccc(-c4cc(Cl)c(O)c(Cl)c4)cc23)c1` [Example 624, cyclopropyl(6-(3,5-dichloro-4-hydroxyphenyl)-4-(3-((dimethylamino)methyl)phenylamino)quinolin-3-yl)methanone]: 0.089 µM, 0.0016 µM, 0.55 µM, 0.043 µM and 3 µM.
As for `NC1CCCN(c2ncc(Nc3c(C(=O)C4CC4)cnc4ccc(-c5cc(F)c(O)c(Cl)c5)cc34)cn2)C1` (stereo not shown) [Example 626, (4-(2-(3-aminopiperidin-1-yl)pyrimidin-5-ylamino)-6-(3-chloro-5-fluoro-4-hydroxyphenyl)quinolin-3-yl)(cyclopropyl)methanone], the IC50 in the test with A549 cells amounted to 0.0073 µM; on MELK, 0.0011 µM; in the test on T47D cells, 0.0051 µM; in the test on DU4475 cells [1] it was 0.0048 µM; with HT-1197 cells (setting [3]), 0.05 µM.
Consider `COC1CCN(C[C@H]2CC[C@H](Nc3c(C(=O)C4CC4)cnc4ccc(-c5cc(F)c(O)c(Cl)c5)cc34)CC2)C1` (stereo partly drawn) [Example 627, (6-(3-chloro-5-fluoro-4-hydroxyphenyl)-4-((trans-4-((3-methoxypyrrolidin-1-yl)methyl)cyclohexyl)amino)quinolin-3-yl)(cyclopropyl)methanone], for which the IC50 in the test on A549 cells is 0.11 µM; at MELK, 0.024 µM; in the test with T47D cells, 0.15 µM; with DU4475 cells [1] it was 0.083 µM; with HT-1197 cells (setting [3]), 0.55 µM.
The corresponding values for `NC1CCCN(c2ncc(Nc3c(C(=O)C4CC4)cnc4ccc(-c5cc(Cl)c(O)c(Cl)c5)cc34)cn2)C1` (stereo not shown) [Example 628, (4-(2-(3-aminopiperidin-1-yl)pyrimidin-5-ylamino)-6-(3,5-dichloro-4-hydroxyphenyl)quinolin-3-yl)(cyclopropyl)methanone] are 0.019 µM, 0.0015 µM, 0.0069 µM, 0.0056 µM and 0.33 µM.
With `CN(C)Cc1cccc(Nc2c(C(=O)C3CC3)cnc3ccc(-c4cc(F)c(O)c(Cl)c4)cc23)c1` [Example 629, (6-(3-chloro-5-fluoro-4-hydroxyphenyl)-4-(3-((dimethylamino)methyl)phenylamino)quinolin-3-yl)(cyclopropyl)methanone], the IC50 in the test on A549 cells was found to be 0.12 µM; on MELK it was 0.0051 µM; in the test on T47D cells, 0.58 µM; in the test on DU4475 cells [1], 0.069 µM; in the test with HT-1197 cells (setting [3]), 3.3 µM.
As for `COc1cc(-c2ccc3ncc(C(=O)C4CC4)c(Nc4ccc(NCCN(C)C)nc4)c3c2)cc(Cl)c1O` [Example 746, (6-(3-chloro-4-hydroxy-5-methoxyphenyl)-4-(6-(2-(dimethylamino)ethylamino)pyridin-3-ylamino)quinolin-3-yl)(cyclopropyl)methanone], the IC50 worked out at 0.11 µM in the test on DU4475 cells [2]; 0.18 µM in the test with A549 cells; 0.0029 µM on MELK; 0.23 µM in the test with T47D cells; 6.2 µM in the test on HT-1197 cells (setting [4]).
On to `CN(C)CCNc1ccc(Nc2c(C(=O)C3CC3)cnc3ccc(-c4cc(Cl)c(O)c(Cl)c4)cc23)cn1` [Example 747, cyclopropyl(6-(3,5-dichloro-4-hydroxyphenyl)-4-(6-(2-(dimethylamino)ethylamino)pyridin-3-ylamino)quinolin-3-yl)methanone], for which the IC50 with DU4475 cells [2] was 0.043 µM; in the test with A549 cells, 0.091 µM; at MELK it was 0.0043 µM; in the test on T47D cells it was 0.16 µM; in the test on HT-1197 cells (setting [4]), 2.6 µM.
Take `COc1cc(-c2ccc3ncc(C(C)=O)c(N[C@H]4CC[C@H](CN5CCC(O)C5)CC4)c3c2)cc(Cl)c1O` (stereo partly shown) [Example 749]: the IC50 in the test with DU4475 cells [2] was 0.21 µM; in the test on A549 cells, 0.22 µM; at MELK it was 0.0017 µM; in the test with T47D cells it was 0.12 µM; with HT-1197 cells (setting [4]), 6.4 µM.
As for `O=C(c1cnc2ccc(-c3cc(Cl)c(O)c(Cl)c3)cc2c1N1CCC(CCN2CCCC2)CC1)C1CC1` [Example 756, cyclopropyl(6-(3,5-dichloro-4-hydroxyphenyl)-4-(4-(2-(pyrrolidin-1-yl)ethyl)piperidin-1-yl)quinolin-3-yl)methanone], the IC50 with DU4475 cells [2] turned out to be 0.27 µM; in the test with A549 cells it was 0.54 µM; with T47D cells, 0.5 µM; with HT-1197 cells (setting [4]) it was 10 µM.
